Peptide text beside a SMILES is read from it.
Tested on: Botrytis cinerea (B05.10)
Test: Resazurin antifungal assay of 180 alpha-factor peptide variants towards Botrytis (Example 2)
Type: cell-based
Set-up: key to active against Botrytis at 15 μM / active against Botrytis at 10 μM: Peptides that showed greater than 90% inhibition were considered active against Botrytis
Details: for Inhibition at 10 μM / Inhibition at 15 μM / Inhibition at 20 μM / Inhibition at 50 μM / Inhibition at 100 μM: % inhibition of fungal growth, Botrytis conidia, resazurin; for Inhibition at 15 μM / active against Botrytis at 15 μM: peptide 15 μM; for Inhibition at 20 μM: peptide 20 μM; for Inhibition at 50 μM: peptide 50 μM; for Inhibition at 100 μM: peptide 100 μM
Outline: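 B. cinerea B05.10 conidia (5000/well) were exposed to peptides at 100, 50, 20, 15 and 10 μM final for 24 h at 20° C. Resazurin was then added and fluorescence read at 570/620 nm. Percent growth inhibition was calculated against conidia-only wells, with four technical replicates.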

| Compound | Inhibition at 10 μM (peptide 10 μM) | Inhibition at 15 μM | Inhibition at 20 μM | Inhibition at 50 μM | Inhibition at 100 μM | active against Botrytis at 15 μM | active against Botrytis at 10 μM (peptide 10 μM) |
| --- | --- | --- | --- | --- | --- | --- | --- |
| CSCC[C@H](NC(=O)[C@@H]1CCCN1C(=O)[C@H](CCC(N)=O)NC(=O)CNC(=O)[C@H](CCCNC(=N)N)NC(=O)[C@H](CCCCN)NC(=O)[C@H](CC(C)C)NC(=O)[C@H](CCCCN)NC(=O)[C@H](CC(C)C)NC(=O)[C@H](CO)NC(=O)[C@H](Cc1c[nH]cn1)NC(=O)[C@@H](N)Cc1c[nH]c2ccccc12)C(=O)N[C@@H](Cc1ccc(O)cc1)C(=O)O [compound 56] (H-WHSLKLKRGQPMY-OH; N-terminus and C-terminus assumed) | <90% | <90% | 99.84% | 100% | 100% |  |  |
| CC[C@H](C)[C@H](NC(=O)[C@H](C)NC(=O)[C@H](CC(C)C)NC(=O)[C@H](Cc1c[nH]c2ccccc12)NC(=O)[C@H](Cc1c[nH]cn1)NC(=O)[C@@H](N)Cc1c[nH]c2ccccc12)C(=O)N[C@@H](Cc1ccccc1)C(=O)N[C@@H](CCCNC(=N)N)C(=O)NCC(=O)N[C@@H](CCC(N)=O)C(=O)N1CCC[C@H]1C(=O)N[C@@H](CCSC)C(=O)N[C@@H](Cc1ccc(O)cc1)C(=O)O [compound 57] (H-WHWLAIFRGQPMY-OH; N-terminus and C-terminus assumed) | 3.45% |  | <90% | 100% | 100% |  |  |
| CC[C@H](C)[C@H](NC(=O)[C@H](CCC(N)=O)NC(=O)[C@@H](NC(=O)[C@H](Cc1c[nH]c2ccccc12)NC(=O)[C@H](CCCCN)NC(=O)[C@@H](N)Cc1c[nH]c2ccccc12)C(C)C)C(=O)N[C@@H](CCCCN)C(=O)N[C@@H](CCCCN)C(=O)NCC(=O)N[C@@H](C)C(=O)N1CCC[C@H]1C(=O)N[C@@H](CCSC)C(=O)N[C@@H](Cc1ccc(O)cc1)C(=O)O [compound 58] (H-WKWVQIKKGAPMY-OH; N-terminus and C-terminus assumed) | <90% |  | <90% | 100% | 100% |  |  |
| CC[C@H](C)[C@H](NC(=O)[C@H](Cc1c[nH]c2ccccc12)NC(=O)[C@H](Cc1c[nH]cn1)NC(=O)[C@@H](N)CCCCN)C(=O)N[C@H](C(=O)N[C@@H](CC(C)C)C(=O)N[C@@H](CCCCN)C(=O)N[C@@H](CO)C(=O)NCC(=O)N[C@@H](CCSC)C(=O)N1CCC[C@H]1C(=O)N[C@@H](CCSC)C(=O)N[C@@H](Cc1ccc(O)cc1)C(=O)O)[C@@H](C)O [compound 59] (H-KHWITLKSGMPMY-OH; N-terminus and C-terminus assumed) | <90% | <90% | 90.97% | 100% | 100% |  |  |
| CC[C@H](C)[C@H](NC(=O)[C@H](CCCCN)NC(=O)[C@H](CC(C)C)NC(=O)[C@H](CCC(N)=O)NC(=O)[C@H](CC(C)C)NC(=O)[C@@H](NC(=O)[C@H](CCCCN)NC(=O)[C@@H](N)Cc1c[nH]c2ccccc12)[C@@H](C)O)C(=O)NCC(=O)N[C@@H](C)C(=O)N1CCC[C@H]1C(=O)N[C@@H](CCSC)C(=O)N[C@@H](Cc1ccc(O)cc1)C(=O)O [compound 60] (H-WKTLQLKIGAPMY-OH; N-terminus and C-terminus assumed) | <90% |  | <90% | 100% | 100% |  |  |
| CSCC[C@H](NC(=O)[C@@H]1CCCN1C(=O)[C@H](CCC(N)=O)NC(=O)CNC(=O)[C@@H]1CCCN1C(=O)[C@H](Cc1ccccc1)NC(=O)[C@H](CC(C)C)NC(=O)[C@H](CCCCN)NC(=O)[C@H](CC(C)C)NC(=O)[C@H](Cc1c[nH]c2ccccc12)NC(=O)[C@H](Cc1c[nH]cn1)NC(=O)[C@@H](N)CCCCN)C(=O)N[C@@H](Cc1ccc(O)cc1)C(=O)O [compound 61] (H-KHWLKLFPGQPMY-OH; N-terminus and C-terminus assumed) | <90% | <90% | 98.64% | 100% | 100% |  |  |
| CC[C@H](C)[C@H](NC(=O)[C@H](CCCCN)NC(=O)[C@@H](NC(=O)[C@H](CCCCN)NC(=O)[C@H](CC(C)C)NC(=O)[C@H](Cc1c[nH]c2ccccc12)NC(=O)[C@H](Cc1c[nH]cn1)NC(=O)[C@@H](N)CCCCN)[C@@H](C)CC)C(=O)NCC(=O)N[C@@H](CCC(=O)O)C(=O)N1CCC[C@H]1C(=O)N[C@@H](CCSC)C(=O)N[C@@H](Cc1ccc(O)cc1)C(=O)O [compound 62] (H-KHWLKIKIGEPMY-OH; N-terminus and C-terminus assumed) | <90% | 98.89% | 100% | 100% | 100% | active |  |
| CC[C@H](C)[C@H](NC(=O)[C@H](CCC(N)=O)NC(=O)[C@H](CC(C)C)NC(=O)[C@H](Cc1c[nH]c2ccccc12)NC(=O)[C@H](CCCNC(=N)N)NC(=O)[C@@H]1CCCN1)C(=O)N[C@@H](CCCCN)C(=O)N[C@@H](CCCCN)C(=O)NCC(=O)N[C@@H](CCC(N)=O)C(=O)N[C@@H](CO)C(=O)N[C@@H](CCSC)C(=O)N[C@@H](Cc1ccc(O)cc1)C(=O)O [compound 63] (H-PRWLQIKKGQSMY-OH; N-terminus and C-terminus assumed) | <90% |  | <90% | 100% | 100% |  |  |
| CSCC[C@H](NC(=O)CNC(=O)[C@H](CO)NC(=O)CNC(=O)[C@@H]1CCCN1C(=O)[C@H](CCCCN)NC(=O)[C@H](Cc1ccccc1)NC(=O)[C@H](CCC(N)=O)NC(=O)[C@H](CC(C)C)NC(=O)[C@H](Cc1c[nH]c2ccccc12)NC(=O)[C@H](Cc1c[nH]cn1)NC(=O)[C@@H](N)CCCCN)C(=O)N[C@@H](Cc1ccc(O)cc1)C(=O)O [compound 64] (H-KHWLQFKPGSGMY-OH; N-terminus and C-terminus assumed) | <90% | <90% | 98.09% | 100% | 100% |  |  |
| CSCC[C@H](NC(=O)[C@@H]1CCCN1C(=O)[C@H](CCC(N)=O)NC(=O)CNC(=O)[C@@H](NC(=O)[C@H](CCCNC(=N)N)NC(=O)[C@H](CC(C)C)NC(=O)[C@H](CC(N)=O)NC(=O)[C@@H](NC(=O)[C@H](Cc1c[nH]c2ccccc12)NC(=O)[C@H](CCCCN)NC(=O)[C@@H](N)Cc1c[nH]c2ccccc12)C(C)C)[C@@H](C)O)C(=O)N[C@@H](Cc1ccc(O)cc1)C(=O)O [compound 65] (H-WKWVNLRTGQPMY-OH; N-terminus and C-terminus assumed) | <90% |  | <90% | 100% | 100% |  |  |
| CC[C@H](C)[C@H](NC(=O)[C@H](Cc1c[nH]c2ccccc12)NC(=O)[C@H](Cc1c[nH]cn1)NC(=O)[C@@H]1CCCN1)C(=O)N[C@@H](CO)C(=O)N[C@@H](CC(C)C)C(=O)N[C@@H](CCCCN)C(=O)N[C@@H](CCCCN)C(=O)NCC(=O)N[C@@H](CCC(N)=O)C(=O)N1CCC[C@H]1C(=O)N[C@@H](CCSC)C(=O)N[C@@H](Cc1ccc(O)cc1)C(=O)O [compound 66] (H-PHWISLKKGQPMY-OH; N-terminus and C-terminus assumed) | <90% | <90% | 96.17% | 100% | 100% |  |  |
| CC[C@H](C)[C@H](NC(=O)[C@H](CCCNC(=N)N)NC(=O)[C@H](CC(C)C)NC(=O)[C@H](CCSC)NC(=O)[C@H](Cc1c[nH]cn1)NC(=O)[C@@H](N)CCCCN)C(=O)N[C@@H](CCCCN)C(=O)N1CCC[C@H]1C(=O)NCC(=O)N[C@@H](CCC(N)=O)C(=O)N1CCC[C@H]1C(=O)N[C@@H](CCSC)C(=O)N[C@@H](Cc1ccc(O)cc1)C(=O)O [compound 67] (H-KHMLRIKPGQPMY-OH; N-terminus and C-terminus assumed) | <90% | <90% | 97.68% | 100% | 100% |  |  |
| CSCC[C@H](NC(=O)[C@@H]1CCCN1C(=O)[C@H](CCC(N)=O)NC(=O)CNC(=O)[C@H](C)NC(=O)[C@H](CCCNC(=N)N)NC(=O)[C@H](CC(C)C)NC(=O)[C@H](CCCNC(=N)N)NC(=O)CNC(=O)[C@H](Cc1c[nH]c2ccccc12)NC(=O)[C@H](Cc1c[nH]cn1)NC(=O)[C@@H](N)CCCCN)C(=O)N[C@@H](Cc1ccc(O)cc1)C(=O)O [compound 68] (H-KHWGRLRAGQPMY-OH; N-terminus and C-terminus assumed) | 97.09% | 99.23% | 100% | 100% | 100% | active | active |
| CSCC[C@H](NC(=O)[C@@H]1CCCN1C(=O)[C@H](CCC(N)=O)NC(=O)CNC(=O)[C@@H]1CCCN1C(=O)[C@H](CC(N)=O)NC(=O)[C@H](CC(C)C)NC(=O)[C@H](CCCNC(=N)N)NC(=O)[C@H](CC(C)C)NC(=O)[C@H](Cc1c[nH]c2ccccc12)NC(=O)[C@H](Cc1c[nH]cn1)NC(=O)[C@@H](N)CCCCN)C(=O)N[C@@H](Cc1ccc(O)cc1)C(=O)O [compound 69] (H-KHWLRLNPGQPMY-OH; N-terminus and C-terminus assumed) | <90% | <90% | 95.74% | 100% | 100% |  |  |

— US20250382332A1, “NOVEL ALPHA-FACTOR BASED PEPTIDES WITH ANTIFUNGAL ACTIVITY” (INVAIO SCIENCES, INC., priority 2024, published 2025)
